In experiment [1] the target is MAP kinase-activated protein kinase 2 (Homo sapiens, UniProt P49137). Kind of experiment: Inhibition of recombinant MAPKAPK2 (unknown origin) by FRET-based Z'-LYTE assay.
Experiment [2] concerns the target Mitogen-activated protein kinase 14 (Homo sapiens, UniProt Q16539). Kind of experiment: Inhibition of recombinant MAPK14 (unknown origin) by FRET-based Z'-LYTE assay.
In experiment [3] the target is Mitogen-activated protein kinase 1 (Homo sapiens, UniProt P28482). Briefly: Inhibition of recombinant ERK2 (unknown origin) by FRET-based Z'-LYTE assay.
Experiment [4] concerns the target RAF proto-oncogene serine/threonine-protein kinase (Homo sapiens, UniProt P04049). Kind of experiment: Inhibition of recombinant RAF1 (unknown origin) by cascade reaction assay.
The target in experiment [5] is Ribosomal protein S6 kinase beta-1 (Homo sapiens, UniProt P23443). Kind of experiment: Inhibition of recombinant RPS6K1 (unknown origin) by FRET-based Z'-LYTE assay.
For experiment [6], the target named is RAC-beta serine/threonine-protein kinase (Homo sapiens, UniProt P31751). Kind of experiment: Inhibition of recombinant AKT2 (unknown origin) by FRET-based Z'-LYTE assay.
In experiment [7] the target is T1, Inhibitor of nuclear factor kappa-B kinase subunit beta (Homo sapiens, UniProt O14920).
T1 sequence (O14920 whole entry): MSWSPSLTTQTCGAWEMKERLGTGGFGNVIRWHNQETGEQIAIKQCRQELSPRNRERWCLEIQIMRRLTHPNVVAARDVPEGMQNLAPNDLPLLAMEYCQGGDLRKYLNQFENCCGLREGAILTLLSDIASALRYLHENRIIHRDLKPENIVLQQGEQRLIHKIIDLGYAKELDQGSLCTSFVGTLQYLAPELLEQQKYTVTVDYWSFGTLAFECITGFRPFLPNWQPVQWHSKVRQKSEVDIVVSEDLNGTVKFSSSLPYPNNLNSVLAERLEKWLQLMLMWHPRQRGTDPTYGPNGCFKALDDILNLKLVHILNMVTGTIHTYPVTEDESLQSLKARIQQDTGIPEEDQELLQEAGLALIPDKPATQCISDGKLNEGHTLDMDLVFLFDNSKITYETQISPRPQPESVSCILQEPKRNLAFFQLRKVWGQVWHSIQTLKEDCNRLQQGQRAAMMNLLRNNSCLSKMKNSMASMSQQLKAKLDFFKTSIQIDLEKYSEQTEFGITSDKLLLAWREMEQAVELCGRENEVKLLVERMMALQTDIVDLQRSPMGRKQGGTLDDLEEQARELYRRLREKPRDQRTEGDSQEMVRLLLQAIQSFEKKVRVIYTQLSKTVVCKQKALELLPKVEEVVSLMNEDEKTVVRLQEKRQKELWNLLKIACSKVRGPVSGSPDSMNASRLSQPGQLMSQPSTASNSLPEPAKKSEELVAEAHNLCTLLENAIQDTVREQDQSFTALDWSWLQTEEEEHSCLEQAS
Kind of experiment: Inhibition of recombinant IKBKB (unknown origin) by FRET-based Z'-LYTE assay.

In experiment [8] the target is Vascular endothelial growth factor receptor 2 (Homo sapiens, UniProt P35968). Kind of experiment: Inhibition of recombinant KDR (unknown origin) by FRET-based Z'-LYTE assay.
Experiment [9] concerns the target T2, Serine/threonine-protein kinase Nek1 (Homo sapiens, UniProt Q96PY6).
T2 sequence (Q96PY6 whole entry): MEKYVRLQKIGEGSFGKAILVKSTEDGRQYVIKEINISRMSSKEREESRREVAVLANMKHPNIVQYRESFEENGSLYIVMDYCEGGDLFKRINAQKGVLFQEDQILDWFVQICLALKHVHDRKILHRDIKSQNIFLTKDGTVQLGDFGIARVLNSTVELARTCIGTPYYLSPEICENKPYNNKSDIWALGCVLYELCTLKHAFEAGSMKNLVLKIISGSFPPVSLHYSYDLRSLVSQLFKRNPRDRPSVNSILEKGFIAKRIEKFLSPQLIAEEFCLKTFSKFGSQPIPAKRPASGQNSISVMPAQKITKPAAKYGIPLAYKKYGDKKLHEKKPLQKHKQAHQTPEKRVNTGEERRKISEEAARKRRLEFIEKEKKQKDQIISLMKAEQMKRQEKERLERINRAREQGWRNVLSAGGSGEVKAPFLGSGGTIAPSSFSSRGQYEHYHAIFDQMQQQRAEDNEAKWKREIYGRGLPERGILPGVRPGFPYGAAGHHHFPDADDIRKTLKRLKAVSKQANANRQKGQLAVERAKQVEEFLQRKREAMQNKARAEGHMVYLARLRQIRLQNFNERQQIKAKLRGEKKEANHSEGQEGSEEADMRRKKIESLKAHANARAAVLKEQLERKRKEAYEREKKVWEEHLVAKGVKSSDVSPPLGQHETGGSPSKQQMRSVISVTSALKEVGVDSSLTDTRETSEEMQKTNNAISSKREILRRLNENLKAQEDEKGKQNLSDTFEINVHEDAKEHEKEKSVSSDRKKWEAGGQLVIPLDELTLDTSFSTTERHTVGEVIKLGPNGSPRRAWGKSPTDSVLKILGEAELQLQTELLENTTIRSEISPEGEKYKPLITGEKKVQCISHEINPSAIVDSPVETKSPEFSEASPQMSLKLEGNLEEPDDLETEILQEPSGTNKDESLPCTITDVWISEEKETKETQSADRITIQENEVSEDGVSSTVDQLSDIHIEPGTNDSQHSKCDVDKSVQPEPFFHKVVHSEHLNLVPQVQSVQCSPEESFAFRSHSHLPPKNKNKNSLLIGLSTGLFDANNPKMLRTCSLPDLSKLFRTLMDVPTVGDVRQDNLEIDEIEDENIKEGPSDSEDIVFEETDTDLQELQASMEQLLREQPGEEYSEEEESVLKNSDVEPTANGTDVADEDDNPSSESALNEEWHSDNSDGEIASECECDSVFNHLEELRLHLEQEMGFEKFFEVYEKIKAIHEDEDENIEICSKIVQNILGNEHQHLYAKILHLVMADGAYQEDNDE
Kind of experiment: Inhibition of recombinant NEK1 (unknown origin) by FRET-based Z'-LYTE assay.

Experiment [10] deals with Dual specificity mitogen-activated protein kinase kinase 1 (Homo sapiens, UniProt Q02750). Kind of experiment: Inhibition of recombinant MEK1 (unknown origin) by cascade reaction assay.
For experiment [11], the target named is AMP-activated protein kinase (AMPK) alpha-1/beta-1/gamma-1 (Homo sapiens, UniProt P54619+Q13131+Q9Y478). Briefly: Inhibition of recombinant AMPK A1/B1/G1 (unknown origin) by FRET-based Z'-LYTE assay. It is filed as protein-complex assay.
Experiment [12] concerns the target RAC-alpha serine/threonine-protein kinase (Homo sapiens, UniProt P31749). Kind of experiment: Inhibition of recombinant AKT1 (unknown origin) by FRET-based Z'-LYTE assay.

A value given as a limit tells only on which side of the number the result lay.

Drawing on ChEMBL document CHEMBL2331439 (J Med Chem, 2013), this text covers IC50 for 4 compounds.

Chain of Ribosomal protein S6 kinase beta-1 (P23443 whole entry): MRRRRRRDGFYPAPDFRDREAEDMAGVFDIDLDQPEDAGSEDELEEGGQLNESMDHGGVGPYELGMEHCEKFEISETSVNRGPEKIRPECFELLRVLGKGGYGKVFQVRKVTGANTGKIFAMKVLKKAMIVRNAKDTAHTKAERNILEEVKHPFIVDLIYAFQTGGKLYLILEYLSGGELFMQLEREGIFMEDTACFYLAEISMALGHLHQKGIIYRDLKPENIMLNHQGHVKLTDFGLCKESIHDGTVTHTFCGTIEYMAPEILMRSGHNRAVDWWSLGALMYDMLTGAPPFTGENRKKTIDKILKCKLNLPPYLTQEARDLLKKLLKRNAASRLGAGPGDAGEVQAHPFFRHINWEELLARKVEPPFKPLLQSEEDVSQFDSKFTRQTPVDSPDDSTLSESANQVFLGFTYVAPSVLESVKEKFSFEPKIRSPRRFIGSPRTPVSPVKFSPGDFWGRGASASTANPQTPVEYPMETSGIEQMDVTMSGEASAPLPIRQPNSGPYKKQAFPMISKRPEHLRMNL
Chain of MAP kinase-activated protein kinase 2 (P49137 whole entry): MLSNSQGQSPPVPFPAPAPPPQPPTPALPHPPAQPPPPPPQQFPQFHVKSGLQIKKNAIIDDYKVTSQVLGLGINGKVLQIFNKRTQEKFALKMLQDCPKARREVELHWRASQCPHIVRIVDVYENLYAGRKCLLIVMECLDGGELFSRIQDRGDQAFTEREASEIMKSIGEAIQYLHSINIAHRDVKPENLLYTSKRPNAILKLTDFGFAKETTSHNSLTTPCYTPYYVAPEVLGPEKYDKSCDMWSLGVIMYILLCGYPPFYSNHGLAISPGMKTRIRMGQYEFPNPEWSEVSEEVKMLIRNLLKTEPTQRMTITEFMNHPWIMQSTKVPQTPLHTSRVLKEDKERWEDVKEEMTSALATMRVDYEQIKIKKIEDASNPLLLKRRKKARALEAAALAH
Chain of Mitogen-activated protein kinase 14 (Q16539 whole entry): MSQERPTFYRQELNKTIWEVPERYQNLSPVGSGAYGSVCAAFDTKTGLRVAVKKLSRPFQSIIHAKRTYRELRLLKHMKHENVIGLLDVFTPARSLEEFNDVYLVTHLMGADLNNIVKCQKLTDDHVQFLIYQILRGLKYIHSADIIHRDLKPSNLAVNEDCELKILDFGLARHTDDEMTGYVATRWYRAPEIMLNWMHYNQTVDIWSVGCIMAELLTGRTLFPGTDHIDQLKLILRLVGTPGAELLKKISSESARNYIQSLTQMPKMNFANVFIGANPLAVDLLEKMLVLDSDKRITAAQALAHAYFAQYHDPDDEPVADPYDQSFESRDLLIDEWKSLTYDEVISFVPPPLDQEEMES
Chain of RAF proto-oncogene serine/threonine-protein kinase (P04049 whole entry): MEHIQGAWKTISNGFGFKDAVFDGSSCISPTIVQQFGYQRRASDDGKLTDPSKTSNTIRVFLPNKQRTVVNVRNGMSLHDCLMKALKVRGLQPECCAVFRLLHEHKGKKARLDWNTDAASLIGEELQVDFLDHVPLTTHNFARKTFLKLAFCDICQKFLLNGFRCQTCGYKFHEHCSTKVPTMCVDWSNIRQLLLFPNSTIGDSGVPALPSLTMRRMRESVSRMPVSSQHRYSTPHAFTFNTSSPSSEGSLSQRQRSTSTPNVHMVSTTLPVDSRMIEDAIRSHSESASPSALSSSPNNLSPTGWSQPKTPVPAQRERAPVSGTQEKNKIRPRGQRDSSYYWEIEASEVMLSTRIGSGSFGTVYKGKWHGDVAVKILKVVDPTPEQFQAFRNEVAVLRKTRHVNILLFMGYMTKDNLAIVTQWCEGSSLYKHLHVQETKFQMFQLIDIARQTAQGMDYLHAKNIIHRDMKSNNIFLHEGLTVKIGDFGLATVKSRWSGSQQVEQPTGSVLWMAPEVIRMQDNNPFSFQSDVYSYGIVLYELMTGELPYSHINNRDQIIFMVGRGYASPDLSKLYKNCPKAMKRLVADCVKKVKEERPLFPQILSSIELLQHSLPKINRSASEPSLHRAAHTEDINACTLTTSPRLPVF
Chain of Mitogen-activated protein kinase 1 (P28482 whole entry): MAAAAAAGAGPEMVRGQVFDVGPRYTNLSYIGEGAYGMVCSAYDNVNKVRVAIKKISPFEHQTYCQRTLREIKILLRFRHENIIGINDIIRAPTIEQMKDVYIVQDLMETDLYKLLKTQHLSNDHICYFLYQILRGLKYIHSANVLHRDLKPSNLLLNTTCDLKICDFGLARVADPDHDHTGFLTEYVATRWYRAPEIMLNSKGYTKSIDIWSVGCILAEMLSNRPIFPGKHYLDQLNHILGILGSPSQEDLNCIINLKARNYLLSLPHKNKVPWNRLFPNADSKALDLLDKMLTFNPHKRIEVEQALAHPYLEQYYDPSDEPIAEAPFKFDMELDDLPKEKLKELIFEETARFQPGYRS
Chain of RAC-beta serine/threonine-protein kinase (P31751 whole entry): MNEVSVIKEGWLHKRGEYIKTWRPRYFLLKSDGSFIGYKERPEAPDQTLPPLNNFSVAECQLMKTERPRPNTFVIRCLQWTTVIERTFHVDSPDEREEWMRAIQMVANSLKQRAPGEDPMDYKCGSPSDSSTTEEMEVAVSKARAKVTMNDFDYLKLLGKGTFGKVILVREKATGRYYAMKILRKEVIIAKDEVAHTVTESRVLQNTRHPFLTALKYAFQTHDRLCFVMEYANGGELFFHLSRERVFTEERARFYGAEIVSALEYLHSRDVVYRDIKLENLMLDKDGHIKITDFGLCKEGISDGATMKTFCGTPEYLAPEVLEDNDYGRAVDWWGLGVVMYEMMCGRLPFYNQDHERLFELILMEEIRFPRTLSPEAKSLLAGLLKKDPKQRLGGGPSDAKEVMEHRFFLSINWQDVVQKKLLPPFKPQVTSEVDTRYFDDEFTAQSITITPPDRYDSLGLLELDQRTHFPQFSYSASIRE
Chain of RAC-alpha serine/threonine-protein kinase (P31749 whole entry): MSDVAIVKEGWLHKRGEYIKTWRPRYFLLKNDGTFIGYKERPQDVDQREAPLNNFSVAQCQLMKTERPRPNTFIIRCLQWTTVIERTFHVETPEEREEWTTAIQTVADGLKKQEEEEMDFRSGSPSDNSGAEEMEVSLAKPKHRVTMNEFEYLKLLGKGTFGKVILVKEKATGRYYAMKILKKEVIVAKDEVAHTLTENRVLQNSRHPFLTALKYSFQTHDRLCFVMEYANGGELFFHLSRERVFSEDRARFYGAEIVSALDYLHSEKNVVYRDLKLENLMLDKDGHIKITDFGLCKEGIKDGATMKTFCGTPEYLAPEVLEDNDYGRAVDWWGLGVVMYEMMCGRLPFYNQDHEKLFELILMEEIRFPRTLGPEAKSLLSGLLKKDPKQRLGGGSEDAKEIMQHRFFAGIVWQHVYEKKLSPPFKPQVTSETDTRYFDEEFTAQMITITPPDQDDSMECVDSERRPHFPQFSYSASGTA
Chain of AMP-activated protein kinase (AMPK) alpha-1/beta-1/gamma-1 (P54619 whole entry): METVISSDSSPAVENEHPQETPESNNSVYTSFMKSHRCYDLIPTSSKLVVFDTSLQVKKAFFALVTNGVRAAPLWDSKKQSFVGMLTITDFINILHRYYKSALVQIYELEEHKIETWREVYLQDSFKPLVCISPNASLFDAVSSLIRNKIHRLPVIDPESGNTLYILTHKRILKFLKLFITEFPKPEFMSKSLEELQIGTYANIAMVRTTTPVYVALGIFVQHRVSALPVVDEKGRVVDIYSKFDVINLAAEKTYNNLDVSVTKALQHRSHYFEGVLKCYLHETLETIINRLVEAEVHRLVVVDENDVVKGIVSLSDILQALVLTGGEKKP
Chain of AMP-activated protein kinase (AMPK) alpha-1/beta-1/gamma-1 (Q9Y478 whole entry): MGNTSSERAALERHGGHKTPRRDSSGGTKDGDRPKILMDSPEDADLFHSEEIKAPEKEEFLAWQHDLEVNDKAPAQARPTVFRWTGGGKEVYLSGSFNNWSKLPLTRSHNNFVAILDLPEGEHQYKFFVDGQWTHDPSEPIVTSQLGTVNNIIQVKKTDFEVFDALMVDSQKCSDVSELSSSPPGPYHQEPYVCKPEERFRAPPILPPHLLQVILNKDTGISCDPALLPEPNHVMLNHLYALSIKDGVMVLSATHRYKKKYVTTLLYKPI
Chain of AMP-activated protein kinase (AMPK) alpha-1/beta-1/gamma-1 (Q13131 whole entry): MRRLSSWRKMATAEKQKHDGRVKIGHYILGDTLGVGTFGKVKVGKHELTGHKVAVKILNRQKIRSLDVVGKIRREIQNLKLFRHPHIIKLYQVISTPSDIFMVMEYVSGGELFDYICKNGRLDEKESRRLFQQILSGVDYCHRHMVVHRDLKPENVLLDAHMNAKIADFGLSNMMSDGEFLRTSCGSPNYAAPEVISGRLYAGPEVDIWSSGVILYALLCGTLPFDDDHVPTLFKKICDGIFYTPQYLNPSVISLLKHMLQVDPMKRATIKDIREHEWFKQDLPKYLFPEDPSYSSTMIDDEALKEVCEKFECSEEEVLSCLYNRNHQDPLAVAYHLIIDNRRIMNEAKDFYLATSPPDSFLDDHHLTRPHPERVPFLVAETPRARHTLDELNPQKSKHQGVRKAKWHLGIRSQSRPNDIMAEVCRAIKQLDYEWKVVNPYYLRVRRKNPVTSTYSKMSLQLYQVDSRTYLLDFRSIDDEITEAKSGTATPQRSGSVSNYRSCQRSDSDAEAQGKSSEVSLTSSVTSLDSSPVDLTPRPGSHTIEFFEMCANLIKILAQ
Chain of Dual specificity mitogen-activated protein kinase kinase 1 (Q02750 whole entry): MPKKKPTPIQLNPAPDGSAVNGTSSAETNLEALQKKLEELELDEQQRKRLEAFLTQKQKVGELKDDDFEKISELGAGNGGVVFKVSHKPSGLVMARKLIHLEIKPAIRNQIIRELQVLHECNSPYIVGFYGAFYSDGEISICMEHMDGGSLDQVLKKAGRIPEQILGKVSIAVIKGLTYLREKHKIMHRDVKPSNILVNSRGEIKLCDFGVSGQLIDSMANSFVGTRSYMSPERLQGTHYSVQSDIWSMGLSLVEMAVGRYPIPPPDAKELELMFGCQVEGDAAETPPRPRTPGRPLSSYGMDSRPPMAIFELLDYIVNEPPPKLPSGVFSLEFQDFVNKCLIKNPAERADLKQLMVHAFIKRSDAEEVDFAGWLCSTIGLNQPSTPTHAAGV

In the case of `CN1C/C(=C\c2ccccn2)C(=O)[C@H](Cc2ccccn2)C1`, the IC50 in experiment [1], in [2], in experiment [3], in experiment [4], in experiment [5] and in [6] was more than 100 µM in each case. Besides, the IC50 in experiment [7] worked out at 15 µM.

In the case of `CN1C/C(=C\c2ccccn2)C(=O)[C@@H](Cc2ccccn2)C1`, the IC50 in experiment [1], in [2], in experiment [3], in experiment [4], in experiment [5] and in experiment [6] was more than 100 µM throughout. In addition, in experiment [7], the IC50 turned out to be 15 µM.

Take `CN1C/C(=C\c2ccccn2)C(=O)/C(=C/c2ccccn2)C1`: the IC50 in experiment [1] is 9.8 µM; in experiment [8] it was 1.3 µM; in experiment [2], more than 100 µM; in [9], 3.5 µM; in experiment [10], 9 µM; in experiment [3], 27 µM. Moreover, the IC50 worked out at 2.5 µM in experiment [11]; 6 µM in experiment [5]; 1.9 µM in experiment [6]; 4 µM in experiment [7]; 2.6 µM in experiment [12].

For the compound `O=C1/C(=C/c2ccccn2)CSC/C1=C\c1ccccn1`, the IC50 was 16 µM in [1]; 6.5 µM in experiment [8]; more than 100 µM in experiment [2]; 14 µM in experiment [9]; 30 µM in experiment [10]; 20 µM in [3]. The IC50 is 8.5 µM in experiment [4]; 26 µM in [11]; 12 µM in experiment [5]; 3.3 µM in experiment [6]; 34 µM in [7]; 3.6 µM in experiment [12].
